From US8278304B2, “Substituted 4-hydroxypyrimidine-5-carboxamides” (Merck Sharp & Dohme Corp., priority 2008, dated 2012)
Where a name gives a salt, the structure may show the parent alone.

Biological target: T1, PHD2 (Homo sapiens, UniProt Q9GZT9)
T1 construct: FLAG-tagged full length PHD2 expressed in and purified from baculovirus-infected Sf9 cells; FLAG; made in house; host or cells: baculovirus-infected Sf9 cells
Experiment: PHD2 / HIF-1α peptide hydroxylation assay, time resolved fluorescence (VHL complex detection)
Type: biochemical
Details: FLAG-tagged full length PHD2; 0.2 μM 2-oxoglutarate, 0.5 μM HIF-1α peptide; read-out: PHD2 Activity (PHD2 binding activity expressed as IC50 (nM))
Method: To each well of a 96-well plate was added 1 μL of test compound in DMSO and 20 μl of assay buffer (50 mM Tris pH 7.4/0.01% Tween-20/0.1 mg/ml bovine serum albumin/10 μM ferrous sulfate/1 mM sodium ascorbate/20 μg/ml catalase) containing 0.15 μg/ml FLAG-tagged full length PHD2 expressed in and purified from baculovirus-infected Sf9 cells. After a 30 min preincubation at room temperature, the enzymatic reactions were initiated by the addition of 4 μL of substrates (final concentrations of 0.2 μM 2-oxoglutarate and 0.5 μM HIF-1α peptide biotinyl-[…]).

T1 sequence (Q9GZT9 whole entry): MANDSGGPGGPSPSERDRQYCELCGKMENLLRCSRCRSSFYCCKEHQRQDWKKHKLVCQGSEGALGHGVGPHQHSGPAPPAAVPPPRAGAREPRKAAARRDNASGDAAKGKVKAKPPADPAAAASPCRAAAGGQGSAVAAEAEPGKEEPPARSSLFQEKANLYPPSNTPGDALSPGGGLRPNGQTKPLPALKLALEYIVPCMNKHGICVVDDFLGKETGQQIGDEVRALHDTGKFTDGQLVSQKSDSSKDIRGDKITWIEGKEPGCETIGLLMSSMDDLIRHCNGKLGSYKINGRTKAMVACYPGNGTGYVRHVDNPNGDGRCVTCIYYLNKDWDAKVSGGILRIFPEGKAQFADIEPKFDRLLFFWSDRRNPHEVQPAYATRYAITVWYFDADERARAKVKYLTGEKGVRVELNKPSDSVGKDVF

IC50 [nM]	Structure (SMILES)
≤ 10	C[C@H](NC(=O)c1cnc(-n2cccn2)nc1O)c1ccc(C#N)cc1 [Example 113, N-[(1S)-1-(4-cyanophenyl)ethyl]-4-hydroxy-2-(1H-pyrazol-1-yl)pyrimidine-5-carboxamide]
≤ 10	O=C(NCc1ccc(-c2ccc(F)cc2)nc1)c1cnc(-n2cccn2)nc1O [Example 108, N-{[6-(4-fluorophenyl)pyridin-3-yl]methyl}-4-hydroxy-2-(1H-pyrazol-1-yl)pyrimidine-5-carboxamide]
≤ 10	C[C@H](NC(=O)c1cnc(-n2cccn2)nc1O)c1ccc2c(c1)OCCO2 [Example 132, N-[(1S)-1-(2,3-dihydro-1,4-benzodioxin-6-yl)ethyl]-4-hydroxy-2-(1H-pyrazol-1-yl)pyrimidine-5-carboxamide]
10 to 100	Cc1nc(-c2ncc(C(=O)NCc3cccc(-c4ccccc4)c3)c(O)n2)cs1 [Example 42, N-(biphenyl-3-ylmethyl)-4-hydroxy-2-(2-methyl-1,3-thiazol-4-yl)pyrimidine-5-carboxamide]
≤ 10	COc1ccc(C(NC(=O)c2cnc(-c3cccnn3)nc2O)c2ccc(O)cc2)cc1 (single isomer, unassigned) [Example 157, 4-hydroxy-N-[(4-hydroxyphenyl)(4-methoxyphenyl)methyl]-2-(pyridazin-3-yl)pyrimidine-5-carboxamide]
≤ 10	CC[C@H](NC(=O)c1cnc(-n2cccn2)nc1O)c1ccccc1 [Example 48, 4-Hydroxy-N-[(1S)-1-phenylpropyl]-2-(1H-pyrazol-1-yl)pyrimidine-5-carboxamide]
10 to 100	CC(NC(=O)c1cnc(-n2cccn2)nc1O)[C@]12C[C@H]3C[C@H](C[C@H](C3)C1)C2 (stereo partly drawn) [Example 90, N-{(1R)-1-[(3S,5S,7S)-1-adamantyl]ethyl}-4-hydroxy-2-(1H-pyrazol-1-yl)pyrimidine-5-carboxamide]
10 to 100	O=C(NC1CCc2ccccc21)c1cnc(-n2cccn2)nc1O (stereo not shown) [Example 57, N-(2,3-dihydro-1H-inden-1-yl)-4-hydroxy-2-(1H-pyrazol-1-yl)pyrimidine-5-carboxamide]
10 to 100	O=C(N[C@H](CO)c1ccccc1)c1cnc(-n2cccn2)nc1O [Example 122, 4-hydroxy-N-[(1S)-2-hydroxy-1-phenylethyl]-2-(1H-pyrazol-1-yl)pyrimidine-5-carboxamide]
≤ 10	O=C(NC(c1ccc(O)cc1)c1ccc(O)cc1)c1cnc(-c2cccnn2)nc1O [Example 6, N-[bis(4-hydroxyphenyl)methyl]-4-hydroxy-2-ylpyridazin-3-ylpyrimidine-5-carboxamide]
≤ 10	COc1ccc(C(NC(=O)c2cnc(-c3cccnn3)nc2O)c2ccc(C)nc2)cc1 (single isomer, unassigned) [Example 146, 4-hydroxy-N-[(4-methoxyphenyl)(6-methylpyridin-3-yl)methyl]-2-(pyridazin-3-yl)pyrimidine-5-carboxamide]
≤ 10	C[C@H](NC(=O)c1cnc(-c2cccnn2)nc1O)c1ccc(-c2cccnc2)cc1 [Example 187, 4-hydroxy-2-pyridazin-3-yl-N-[(1S)-1-(4-pyridin-3-ylphenyl)ethyl]pyrimidine-5-carboxamide trifluoroacetate (salt)]
10 to 100	COc1ccc(CC(NC(=O)c2cnc(-c3cccnn3)nc2O)c2ccc(C#N)cc2)cc1 (single isomer, unassigned) [Example 160, N-[1-(4-cyanophenyl)-2-(4-methoxyphenyl)ethyl]-4-hydroxy-2-(pyridazin-3-yl)pyrimidine-5-carboxamide]
≤ 10	COc1ccc(C(NC(=O)c2cnc(-c3cccnn3)nc2O)c2cccc(C#N)c2)cc1 (single isomer, unassigned) [Example 147, N-[(3-cyanophenyl)(4-methoxyphenyl)methyl]-4-hydroxy-2-(pyridazin-3-yl)pyrimidine-5-carboxamide]
≤ 10	CC(C)(NC(=O)c1cnc(-n2cccn2)nc1O)c1ccc(F)c(F)c1 [Example 89, N-[1-(3,4-difluorophenyl)-1-methylethyl]-4-hydroxy-2-(1H-pyrazol-1-yl)pyrimidine-5-carboxamide]
≤ 10	COc1ccc(C(NC(=O)c2cnc(-c3cccnn3)nc2O)c2nc3ccccc3s2)cc1 (stereo not shown) [Example 173, N-[1,3-benzothiazol-2-yl(4-methoxyphenyl)methyl]-4-hydroxy-2-(pyridazin-3-yl)pyrimidine-5-carboxamide]
100 to 1000	CC(C)(NC(=O)c1cnc(-n2cccn2)nc1O)C(=O)O [Example 188, N-{[4-hydroxy-2-(1H-pyrazol-1-yl)pyrimidin-5-yl]carbonyl}-2-methylalanine]
100 to 1000	Cc1cnc(CNC(=O)c2cnc(-n3cccn3)nc2O)cn1 [Example 66, 4-Hydroxy-N-[(5-methylpyrazin-2-yl)methyl]-2-(1H-pyrazol-1-yl)pyrimidine-5-carboxamide]
≤ 10	COc1ccc(C(NC(=O)c2cnc(-c3cccnn3)nc2O)c2ccc(C#N)nc2)cc1 (stereo not shown) [Example 112, N-[(6-cyanopyridin-3-yl)(4-methoxyphenyl)methyl]-4-hydroxy-2-pyridazin-3-ylpyrimidine-5-carboxamide]
≤ 10	CC(C)(NC(=O)c1cnc(-n2cccn2)nc1O)C(=O)N1CCc2ccccc21 [Example 189, N-[1-(2,3-dihydro-1H-indol-1-yl)-2-methyl-1-oxopropan-2-yl]-4-hydroxy-2-(1H-pyrazol-1-yl)pyrimidine-5-carboxamide]
≤ 10	O=C(N[C@@H](CO)c1ccccc1)c1cnc(-n2cccn2)nc1O [Example 123, 4-hydroxy-N-[(1R)-2-hydroxy-1-phenylethyl]-2-(1H-pyrazol-1-yl)pyrimidine-5-carboxamide]
10 to 100	C[C@@H](NC(=O)[C@H](NC(=O)c1cnc(-n2cccn2)nc1O)c1ccccc1)c1ccccc1 [Example 180, 4-Hydroxy-N-((1R)-2-oxo-1-phenyl-2-{[(1R)-1-phenylethyl]amino}ethyl)-2-(1H-pyrazol-1-yl)pyrimidine-5-carboxamide]
100 to 1000	Cc1cccc(-c2ncc(C(=O)NCc3ccc(Cl)cc3Cl)c(O)n2)n1 [Example 17, N-(2,4-dichlorobenzyl)-4-hydroxy-2-(6-methylpyridin-2-yl)pyrimidine-5-carboxamide]
10 to 100	O=C(NCc1cnc(-c2ccc(F)cc2)cn1)c1cnc(-n2cccn2)nc1O [Example 109, N-{[5-(4-fluorophenyl)pyrazin-2-yl]methyl}-4-hydroxy-2-(1H-pyrazol-1-yl)pyrimidine-5-carboxamide]
10 to 100	O=C(NN1CCCCC1)c1cnc(-n2cccn2)nc1O [Example 80, 4-hydroxy-N-piperidin-1-yl-2-(1H-pyrazol-1-yl)pyrimidine-5-carboxamide trifluoroacetate (salt)]
≤ 10	O=C(N[C@H](c1ccccc1)[C@@H](O)c1ccccc1)c1cnc(-c2cccnn2)nc1O [Example 138]
1000 to 10000	O=C(c1cnc(-n2cccn2)nc1O)N1CCCCC1 [Example 81, 5-(Piperidin-1-ylcarbonyl)-2-(1H-pyrazol-1-yl)pyrimidin-4-ol]
≤ 10	C[C@H](NC(=O)c1cnc(-c2cccnn2)nc1O)c1ccc(-c2cccc3cnccc23)cc1 [Example 185, 4-hydroxy-N-[(1S)-1-(4-isoquinolin-5-ylphenyl)ethyl]-2-pyridazin-3-ylpyrimidine-5-carboxamide]
